In PMC4911353, “Pharmacologic Inhibition of Host Phosphodiesterase-4 Improves Isoniazid-Mediated Clearance of Mycobacterium tuberculosis” (Frontiers in Immunology, 2016):

Test system: Mtb-infected mouse lungs
Test: Genome-wide lung transcriptome (microarray, IPA network/GO analysis) of Mtb-infected mice
Format: in vivo
[1] = Canonical IFN signaling pathway

CCOc1cc([C@@H](CS(C)(=O)=O)N2Cc3cccc(NC(=O)C4CC4)c3C2=O)ccc1OC [CC-11050, N-[2-[(1S)-1-(3-ethoxy-4-methoxyphenyl)-2-(methylsulfonyl)ethyl]-2,3-dihydro-3-oxo-1H-isoindol-4-yl]-(9Cl) cyclopropanecarboxamide]
-1.187: LIF expression (Lung inflammation network)
1.322: HSPB8 expression (IL17 interaction network)
-1.135: HMGB1 expression (IL17 interaction network)
47: Number of SDEGs affected by more than 1.5-folds (14 days of treatment (29 upregulated and 18 downregulated))
1,277: Number of SDEGs relative to infected untreated animals (14 days of treatment, FDR 5%)
1.149: ENTPD1 expression (IL17 interaction network) | ENTPD1 expression (Lung inflammation network)
1.241: TFPI expression (Lung inflammation network)
-1.115: IFNGRb expression [1] | IFNGR2 expression (Lung inflammation network)
1.12: PTEN expression (Lung inflammation network)
-1.184: IL17F expression (IL17 interaction network)
1.165: FCGRT expression (Lung inflammation network)
0: BAK expression [1] | BAX expression [1] | DRIP150 expression [1] | IFI35 expression [1] | IFIT3 expression [1] | IFNAR2 expression [1] | IFNG expression [1] | IRF1 expression [1] | IRF9 expression [1] | JAK2 expression [1] | OAS1 expression [1] | PIAS1 expression [1] | PSMB8 expression [1] | SOCS1 expression [1] | STAT1 expression [1] | STAT2 expression [1] | TAP1 expression [1] | TC-PTP expression [1] | TYK2 expression [1] | ACTB expression (IL17 interaction network) | CCL2 expression (IL17 interaction network) | CCL5 expression (IL17 interaction network) | CCL13 expression (IL17 interaction network) | CSF2 expression (IL17 interaction network) | EDIL3 expression (IL17 interaction network) | IFNG expression (IL17 interaction network) | IL1B expression (IL17 interaction network) | IL6 expression (IL17 interaction network) | IL10 expression (IL17 interaction network) | IL16 expression (IL17 interaction network) | IL17A expression (IL17 interaction network) | IL17D expression (IL17 interaction network) | LTA expression (IL17 interaction network) | MMP9 expression (IL17 interaction network) | NOS2 expression (IL17 interaction network) | PTGS2 expression (IL17 interaction network) | RGS13 expression (IL17 interaction network) | SELE expression (IL17 interaction network) | STAT3 expression (IL17 interaction network) | TIMP1 expression (IL17 interaction network) | TLR4 expression (IL17 interaction network) | TNF expression (IL17 interaction network) | TRAF3IP2 expression (IL17 interaction network) | TRAF6 expression (IL17 interaction network) | VWF expression (IL17 interaction network) | ABL1 expression (Lung inflammation network) | ACO2 expression (Lung inflammation network) | ACTB expression (Lung inflammation network) | ADORA2A expression (Lung inflammation network) | AGER expression (Lung inflammation network) | AGTR1 expression (Lung inflammation network) | AHR expression (Lung inflammation network) | ALDH2 expression (Lung inflammation network) | ANGPT1 expression (Lung inflammation network) | ANXA3 expression (Lung inflammation network) | ATF3 expression (Lung inflammation network) | BAX expression (Lung inflammation network) | BID expression (Lung inflammation network) | BSG expression (Lung inflammation network) | CASP1 expression (Lung inflammation network) | CAV1 expression (Lung inflammation network) | CBL expression (Lung inflammation network) | CCL2 expression (Lung inflammation network) | CCL5 expression (Lung inflammation network) | CCR4 expression (Lung inflammation network) | CCR5 expression (Lung inflammation network) | CD4 expression (Lung inflammation network) | CD14 expression (Lung inflammation network) | CD40LG expression (Lung inflammation network) | CD44 expression (Lung inflammation network) | CD86 expression (Lung inflammation network) | CD200 expression (Lung inflammation network) | CIITA expression (Lung inflammation network) | CSF2RB expression (Lung inflammation network) | CSF2 expression (Lung inflammation network) | CSK expression (Lung inflammation network) | CTLA4 expression (Lung inflammation network) | CTSS expression (Lung inflammation network) | CXCR3 expression (Lung inflammation network) | CYBB expression (Lung inflammation network) | CYLD expression (Lung inflammation network) | Ccl6 expression (Lung inflammation network) | Cd59a expression (Lung inflammation network) | Cxcl15 expression (Lung inflammation network) | EDNRA expression (Lung inflammation network) | EIF2C2 expression (Lung inflammation network) | F2RL1 expression (Lung inflammation network) | F10 expression (Lung inflammation network) | FASLG expression (Lung inflammation network) | FBN1 expression (Lung inflammation network) | FCGR2B expression (Lung inflammation network) | HMGCR expression (Lung inflammation network) | HRH1 expression (Lung inflammation network) | HTT expression (Lung inflammation network) | IFNG expression (Lung inflammation network) | IKBKB expression (Lung inflammation network) | IKBKE expression (Lung inflammation network) | IL1B expression (Lung inflammation network) | IL1R1 expression (Lung inflammation network) | IL2RG expression (Lung inflammation network) | IL4R expression (Lung inflammation network) | IL6 expression (Lung inflammation network) | IL10 expression (Lung inflammation network) | IL12B expression (Lung inflammation network) | IL15RA expression (Lung inflammation network) | IL16 expression (Lung inflammation network) | IL17RB expression (Lung inflammation network) | IL18 expression (Lung inflammation network) | ITGB6 expression (Lung inflammation network) | ITGBL1 expression (Lung inflammation network) | ITK expression (Lung inflammation network) | KIT expression (Lung inflammation network) | LAT expression (Lung inflammation network) | LCP2 expression (Lung inflammation network) | LGALS1 expression (Lung inflammation network) | LTA expression (Lung inflammation network) | MAP3K14 expression (Lung inflammation network) | MARK2 expression (Lung inflammation network) | MGAT5 expression (Lung inflammation network) | MKL2 expression (Lung inflammation network) | MMP9 expression (Lung inflammation network) | MMP14 expression (Lung inflammation network) | NCF1 expression (Lung inflammation network) | NEO1 expression (Lung inflammation network) | NFATC2 expression (Lung inflammation network) | NFKB1 expression (Lung inflammation network) | NLRP3 expression (Lung inflammation network) | NOD1 expression (Lung inflammation network) | NOD2 expression (Lung inflammation network) | NOS2 expression (Lung inflammation network) | NQO1 expression (Lung inflammation network) | NQO2 expression (Lung inflammation network) | NT5E expression (Lung inflammation network) | PDE5A expression (Lung inflammation network) | PDGFRA expression (Lung inflammation network) | PDGFRB expression (Lung inflammation network) | PLA2G4A expression (Lung inflammation network) | PLAU expression (Lung inflammation network) | PTAFR expression (Lung inflammation network) | PTGS2 expression (Lung inflammation network) | PTPN6 expression (Lung inflammation network) | PTPRC expression (Lung inflammation network) | RELB expression (Lung inflammation network) | S100A4 expression (Lung inflammation network) | SELE expression (Lung inflammation network) | SFTPD expression (Lung inflammation network) | SLC6A2 expression (Lung inflammation network) | SOCS1 expression (Lung inflammation network) | SPI1 expression (Lung inflammation network) | SPP1 expression (Lung inflammation network) | STAT1 expression (Lung inflammation network)
1.126: SFTPA1 expression (Lung inflammation network)
1.609: FOXO3 expression (Lung inflammation network)
-1.343: E2F3 expression (Lung inflammation network)
1.235: EDNRB expression (Lung inflammation network)
